For 7 molecules, mutagenic call results are on record in PubChem BioAssay AID1259407 (Chemical Carcinogenesis Research Information System (CCRIS), 2018).

In this series the test system is CCRIS mutagenicity, Ames/micronucleus/aberration tests. Description: CCRIS mutagenicity studies.
Setting [1] is: Test System: AMES SALMONELLA TYPHIMURIUM, Strain/Indicator: TA98, Metabolic Activation: NONE, Method: STANDARD PLATE.
Where [2] appears, read: Test System: AMES SALMONELLA TYPHIMURIUM, Strain/Indicator: TA98, Metabolic Activation: RAT, LIVER, S-9, AROCLOR 1254, Method: STANDARD PLATE.
[3] abbreviates: Test System: AMES SALMONELLA TYPHIMURIUM, Strain/Indicator: TA100, Metabolic Activation: NONE, Method: STANDARD PLATE.
Where [4] appears, read: Test System: AMES SALMONELLA TYPHIMURIUM, Strain/Indicator: TA100, Metabolic Activation: RAT, LIVER, S-9, AROCLOR 1254, Method: STANDARD PLATE.
Setting [5] is: Test System: AMES SALMONELLA TYPHIMURIUM, Strain/Indicator: TA102, Metabolic Activation: NONE, Method: STANDARD PLATE.
[6] abbreviates: Test System: AMES SALMONELLA TYPHIMURIUM, Strain/Indicator: TA102, Metabolic Activation: RAT, LIVER, S-9, AROCLOR 1254, Method: STANDARD PLATE.

Each structure is given as a SMILES string. Calls of active or inactive are those of the source. How the calls were made is not given here.

Consider `c1ccc2c(c1)ccc1[nH]c3ccc4ccccc4c3c12`, for which the mutagenic call was “inactive; negative” under setting [1]; “inactive; negative” (Test System: AMES SALMONELLA TYPHIMURIUM, Strain/Indicator: TA98, Metabolic Activation: RAT, LIVER, S-9, 3-METHYLCHOLANTHRENE, Method: STANDARD PLATE); “inactive; negative” under setting [2]; “inactive; negative” (Test System: AMES SALMONELLA TYPHIMURIUM, Strain/Indicator: TA98, Metabolic Activation: RAT, LIVER, S-9, PHENOBARBITAL, Method: STANDARD PLATE); “inactive; negative” (Test System: AMES SALMONELLA TYPHIMURIUM, Strain/Indicator: TA100, Metabolic Activation: MOUSE, LIVER, S-9, BETA-NAPHTHOFLAVONE, Method: STANDARD PLATE); “inactive; negative” (Test System: AMES SALMONELLA TYPHIMURIUM, Strain/Indicator: TA100, Metabolic Activation: MOUSE, LIVER, S-9, PHENOBARBITAL, Method: STANDARD PLATE). Also, the mutagenic call by setting is: under setting [3], “inactive; negative”; (Test System: AMES SALMONELLA TYPHIMURIUM, Strain/Indicator: TA100, Metabolic Activation: RABBIT, LIVER, S-9, BENZO[A]PYRENE, Method: STANDARD PLATE) “inactive; negative”; (Test System: AMES SALMONELLA TYPHIMURIUM, Strain/Indicator: TA100, Metabolic Activation: RAT, LIVER, S-9, PHENOBARBITAL, Method: STANDARD PLATE) “inactive; negative”; (Test System: AMES SALMONELLA TYPHIMURIUM, Strain/Indicator: TM677, Metabolic Activation: NONE, Method: PREINCUBATION) “inactive; negative”; (Test System: AMES SALMONELLA TYPHIMURIUM, Strain/Indicator: TM677, Metabolic Activation: RAT, LIVER, S-9, 3-METHYLCHOLANTHRENE (1%), Method: PREINCUBATION) “active; positive”; (Test System: AMES SALMONELLA TYPHIMURIUM, Strain/Indicator: TM677, Metabolic Activation: RAT, LIVER, S-9, 3-METHYLCHOLANTHRENE (10%), Method: PREINCUBATION) “inactive; negative”.

Take `CC(=O)O[C@H]1CC[C@]2(C)[C@H]3CC[C@]4(C)[C@@H]([C@H](C)CCCC(C)C)CC[C@H]4[C@@H]3C[C@@H]3N(N4C(=O)c5ccccc5C4=O)[C@@]32C1` (some centres undefined): the mutagenic call (Test System: AMES SALMONELLA TYPHIMURIUM, Strain/Indicator: TA97A, Metabolic Activation: NONE, Method: STANDARD PLATE) is “active; positive”; the mutagenic call (Test System: AMES SALMONELLA TYPHIMURIUM, Strain/Indicator: TA97A, Metabolic Activation: RAT, LIVER, S-9, AROCLOR 1254, Method: STANDARD PLATE) was “active; positive”; the mutagenic call under setting [1] was “active; positive”; the mutagenic call under setting [3] is “active; positive”; the mutagenic call under setting [4] was “active; positive”; the mutagenic call under setting [5] is “inactive; negative”. The mutagenic call under setting [6] was “active; positive”; the mutagenic call (Test System: AMES SALMONELLA TYPHIMURIUM, Strain/Indicator: TA104, Metabolic Activation: NONE, Method: STANDARD PLATE) is “active; positive”; the mutagenic call (Test System: AMES SALMONELLA TYPHIMURIUM, Strain/Indicator: TA104, Metabolic Activation: RAT, LIVER, S-9, AROCLOR 1254, Method: STANDARD PLATE) was “active; positive”.

As to `CC1=C(N=O)CNc2c1nc1c(C)cccn21`, the mutagenic call reads like this: under setting [1], “active; positive”; (Test System: AMES SALMONELLA TYPHIMURIUM, Strain/Indicator: TA98, Metabolic Activation: RAT, LIVER, CYTOSOL, AROCLOR 1254, Method: STANDARD PLATE) “active; positive”; (Test System: AMES SALMONELLA TYPHIMURIUM, Strain/Indicator: TA98, Metabolic Activation: RAT, LIVER, MICROSOMES, AROCLOR 1254, Method: STANDARD PLATE) “active; positive”; under setting [2], “active; positive”.

As to `C/C=C/C=C/C`, the mutagenic call runs as follows: (Test System: AMES SALMONELLA TYPHIMURIUM, Strain/Indicator: TA98, Metabolic Activation: NONE, Method: PREINCUBATION) “inactive; negative”; (Test System: AMES SALMONELLA TYPHIMURIUM, Strain/Indicator: TA98, Metabolic Activation: S-9, Method: PREINCUBATION) “inactive; negative”; (Test System: AMES SALMONELLA TYPHIMURIUM, Strain/Indicator: TA100, Metabolic Activation: NONE, Method: PREINCUBATION) “inactive; negative”; (Test System: AMES SALMONELLA TYPHIMURIUM, Strain/Indicator: TA100, Metabolic Activation: S-9, Method: PREINCUBATION) “inactive; negative”; (Test System: AMES SALMONELLA TYPHIMURIUM, Strain/Indicator: TA1535, Metabolic Activation: NONE, Method: PREINCUBATION) “inactive; negative”; (Test System: AMES SALMONELLA TYPHIMURIUM, Strain/Indicator: TA1535, Metabolic Activation: S-9, Method: PREINCUBATION) “inactive; negative”. Further, the mutagenic call was “inactive; negative” (Test System: E.COLI, Strain/Indicator: WP2UVRA/PKM101, Metabolic Activation: NONE, Method: PREINCUBATION) and “inactive; negative” (Test System: E.COLI, Strain/Indicator: WP2UVRA/PKM101, Metabolic Activation: S-9, Method: PREINCUBATION).

As for `CC(=O)OCc1c2ccccc2cc2ccc3ccccc3c12`, the mutagenic call by setting is: under setting [1], “active; positive”; under setting [3], “active; positive”.

Take `CCCON=O`: the mutagenic call reads like this: (Test System: AMES SALMONELLA TYPHIMURIUM, Strain/Indicator: TA98, Metabolic Activation: HAMSTER, LIVER, S-9, AROCLOR 1254, Method: STANDARD PLATE) “inactive; negative”; under setting [1], “inactive; negative”; under setting [2], “inactive; negative”; (Test System: AMES SALMONELLA TYPHIMURIUM, Strain/Indicator: TA100, Metabolic Activation: HAMSTER, LIVER, S-9, AROCLOR 1254, Method: STANDARD PLATE) “active; positive”; under setting [3], “inactive; negative”; under setting [4], “active; positive”. Besides, the mutagenic call (Test System: AMES SALMONELLA TYPHIMURIUM, Strain/Indicator: TA1535, Metabolic Activation: HAMSTER, LIVER, S-9, AROCLOR 1254, Method: STANDARD PLATE) was “active; positive”; the mutagenic call (Test System: AMES SALMONELLA TYPHIMURIUM, Strain/Indicator: TA1535, Metabolic Activation: NONE, Method: STANDARD PLATE) is “active; positive”; the mutagenic call (Test System: AMES SALMONELLA TYPHIMURIUM, Strain/Indicator: TA1535, Metabolic Activation: RAT, LIVER, S-9, AROCLOR 1254, Method: STANDARD PLATE) is “active; positive”; the mutagenic call (Test System: AMES SALMONELLA TYPHIMURIUM, Strain/Indicator: TA1537, Metabolic Activation: HAMSTER, LIVER, S-9, AROCLOR 1254, Method: STANDARD PLATE) was “inactive; negative”; the mutagenic call (Test System: AMES SALMONELLA TYPHIMURIUM, Strain/Indicator: TA1537, Metabolic Activation: NONE, Method: STANDARD PLATE) was “inactive; negative”; the mutagenic call (Test System: AMES SALMONELLA TYPHIMURIUM, Strain/Indicator: TA1537, Metabolic Activation: RAT, LIVER, S-9, AROCLOR 1254, Method: STANDARD PLATE) is “inactive; negative”. The mutagenic call was “active; positive. reevaluation of results: inconclusive” (Test System: MOUSE LYMPHOMA, Strain/Indicator: L5178Y (TK+/TK-), Metabolic Activation: NONE, Method: SUSPENSION/PLATE); “active; positive. reevaluation of results: positive” (Test System: MOUSE LYMPHOMA, Strain/Indicator: L5178Y (TK+/TK-), Metabolic Activation: RAT, LIVER, S-9, AROCLOR 1254, Method: SUSPENSION/PLATE); “active; positive” (Test System: Mouse lymphoma, Strain/Indicator: L5178Y (tk+/tk-), Metabolic Activation: None, Method: Suspension/plate); “active; positive” (Test System: Mouse lymphoma, Strain/Indicator: L5178Y (tk+/tk-), Metabolic Activation: Rat, Liver, S-9, Aroclor 1254, Method: Suspension/plate).

`CCOC(=O)c1[nH]c2ccccc2c1N=Cc1ccc(C)cc1`: the mutagenic call runs as follows: (Test System: AMES SALMONELLA TYPHIMURIUM, Strain/Indicator: TA97, Metabolic Activation: NONE, Method: STANDARD PLATE) “inactive; negative”; (Test System: AMES SALMONELLA TYPHIMURIUM, Strain/Indicator: TA97, Metabolic Activation: RAT, LIVER, S-9, AROCLOR 1254, Method: STANDARD PLATE) “inactive; negative”; under setting [1], “inactive; negative”; under setting [2], “inactive; negative”; under setting [3], “inactive; negative”; under setting [4], “inactive; negative”. In addition, the mutagenic call is, setting by setting: under setting [5], “inactive; negative”; under setting [6], “inactive; negative”.
